Counter-ions that a name gives are not always drawn.
Assays:
[1] = target: T1, Falcipain-2 (Plasmodium falciparum, UniProt Q8I6U4); assay: falcipain-2 enzymatic assay (fluorogenic substrate H-D-VLR-AFC, endpoint); format: biochemical; details: parasitic recombinant enzyme, pH 5.5, quenched after 60 minutes
T1 sequence (Q8I6U4 244-484): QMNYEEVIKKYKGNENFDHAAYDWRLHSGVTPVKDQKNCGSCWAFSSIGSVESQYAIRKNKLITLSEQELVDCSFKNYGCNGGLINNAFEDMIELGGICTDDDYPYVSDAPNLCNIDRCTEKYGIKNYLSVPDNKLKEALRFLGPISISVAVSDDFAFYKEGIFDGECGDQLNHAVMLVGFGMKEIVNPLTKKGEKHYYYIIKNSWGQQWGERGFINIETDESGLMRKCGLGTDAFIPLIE

[2] = target: T2, Falcipain-3 (Plasmodium falciparum, UniProt Q8IIL0); assay: falcipain-3 enzymatic assay (fluorogenic substrate H-D-VLR-AFC, endpoint); format: biochemical; details: parasitic recombinant enzyme, pH 5.5, quenched after 60 minutes
T2 sequence (Q8IIL0 243-492): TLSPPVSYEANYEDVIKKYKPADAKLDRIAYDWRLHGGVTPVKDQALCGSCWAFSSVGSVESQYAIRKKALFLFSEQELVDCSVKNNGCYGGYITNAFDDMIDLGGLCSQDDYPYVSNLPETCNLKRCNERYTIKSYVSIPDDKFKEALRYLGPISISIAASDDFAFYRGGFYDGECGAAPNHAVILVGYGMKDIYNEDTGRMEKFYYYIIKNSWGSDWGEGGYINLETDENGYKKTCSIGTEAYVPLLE

[3] = test system: Plasmodium falciparum parasite; assay: whole cell activity against the Plasmodium falciparum parasite; format: cell-based

IC50 [1]	IC50 [2]	IC50 [3]	SMILES
0.0025 to 0.015 µM	0.015 to 0.15 µM	0.015 to 0.15 µM	CN1CCN(C2CCN(Cc3ccc(C(=O)NN(CC4CCCC4)c4nc(C#N)nc5c4ncn5C)cc3)CC2)CC1 [Example 1, N′-(2-cyano-9-methyl-9H-purin-6-yl)-N′-(cyclopentylmethyl)-4-({[4-(4-methyl-1-piperazinyl)-1-piperidinyl]methyl}benzohydrazide trifluoroacetate]
0.001 to 0.0025 µM	0.015 to 0.15 µM	0.015 to 0.15 µM	CN1CCN(c2cccc(C(=O)NN(c3nc(C#N)nc4c3ncn4C)C3CCCC3)c2)CC1 [Example 33, N′-(2-cyano-9-methyl-9H-purin-6-yl)-N′-cyclopentyl-3-(4-methyl-1-piperazinyl)benzohydrazide trifluoroacetate]
0.001 to 0.0025 µM	0.15 to 0.25 µM	0.0025 to 0.015 µM	CN(C)CCCn1cnc2c(N(NC(=O)c3cccc(N4CCN(C)CC4)c3)C3CCCC3)nc(C#N)nc21 [Example 37, N′-{2-cyano-9-[3-(dimethylamino)propyl]-9H-purin-6-yl}-N′-cyclo pentyl-3-4-methyl-1-piperazinyl)benzohydrazide trifluoroacetate]
